From ChEMBL document CHEMBL1156487, “Proximity-accelerated chemical coupling reaction in the benzodiazepine-binding site of gamma-aminobutyric acid type A receptors: superposition of different allosteric modulators” (J Biol Chem, 2007) come the findings set out here.

Active and inactive are the calls of the source. The rule behind the calls is not given here.

The nature of experiment [1]: (§1) Activity at rat […] GABAA alpha-1V202Cbeta-2-gamma-2 mutant receptor expressed in xenopus oocytes assessed as GABA-elicited response by two electrode voltage clamp method relative to control. As to conditions: Oocyte. The experiment is classed as cell-based. Background: In two-electrode clamp one electrode senses voltage and the other passes current.
In experiment [2] the test system is Oocyte. The experiment is described as §1. It is filed as cell-based.
Experiment [3] can be described thus: (§2) Activity at rat […] GABAA alpha-1V211Cbeta-2-gamma-2 mutant receptor expressed in xenopus oocytes assessed as GABA-elicited response by two electrode voltage clamp method relative to control. It is filed as cell-based. As to conditions: Oocyte.
Experiment [4] has as its system Oocyte. Described as §2. It is filed as cell-based.
The test system of experiment [5] is Oocyte. Description: Activity at rat GABAA alpha-1H101Cbeta-2-gamma-2 mutant receptor expressed in xenopus oocytes assessed as change in GABA-induced current amplitude at 10 uM after 1 min exposure to GABA by two electrode voltage clamp method. It is filed as cell-based.
The nature of experiment [6]: (§3) Activity at rat […] GABAA alpha-1H101Cbeta-2-gamma-2 mutant receptor expressed in xenopus oocytes assessed as GABA-elicited response by two electrode voltage clamp method relative to control. It is filed as cell-based. The following applies: Oocyte.
The subject of experiment [7] is Oocyte. The description is as §3. It is filed as cell-based.
The nature of experiment [8]: (§4) Activity at rat […] GABAA alpha-1G157Cbeta-2-gamma-2 mutant receptor expressed in xenopus oocytes assessed as GABA-elicited response by two electrode voltage clamp method relative to control. It is filed as cell-based. The following applies: Oocyte.
Experiment [9] has as its system Oocyte. Described as §4. It is filed as cell-based.
For experiment [10], the system named is Oocyte. The experiment in a line: Activity at rat GABAA alpha-1H101Cbeta-2-gamma-2 mutant receptor expressed in xenopus oocytes assessed as change in GABA-induced current amplitude at 1 uM after 1 min exposure to GABA by two electrode voltage clamp method. It is filed as cell-based.
For experiment [11], the system named is Oocyte. The experiment in a line: Activity at rat GABAA alpha-1H101Cbeta-2-gamma-2 mutant receptor expressed in xenopus oocytes assessed as change in GABA-induced current amplitude at 500 nM by two electrode voltage clamp method in presence of L-cysteine. It is filed as cell-based.
Experiment [12] deals with Oocyte. The experiment in a line: Activity at rat GABAA alpha-1H101Cbeta-2-gamma-2 mutant receptor expressed in xenopus oocytes assessed as change in GABA-induced current amplitude at 10 nM to 1 uM after 1 min exposure to GABA by two electrode voltage clamp method. The experiment is classed as cell-based.
Experiment [13] deals with Oocyte. Description: Activity at rat GABAA alpha-1H101Cbeta-2-gamma-2 mutant receptor expressed in xenopus oocytes assessed as change in GABA-induced current amplitude first phase stimulation at 3 uM by two electrode voltage clamp method. It is filed as cell-based.
For experiment [14], the system named is Oocyte. The experiment in a line: Activity at rat GABAA alpha-1H101Cbeta-2-gamma-2 mutant receptor expressed in xenopus oocytes assessed as change in GABA-induced current amplitude second phase stimulation at 3 uM by two electrode voltage clamp method. The experiment is classed as cell-based.
Experiment [15] concerns Oocyte. Description: Activity at rat GABAA alpha-1G157Cbeta-2-gamma-2 mutant receptor expressed in xenopus oocytes assessed as change in GABA-induced current amplitude at 1 uM after 1 min exposure to GABA by two electrode voltage clamp method. It is filed as cell-based.
For experiment [16], the system named is Oocyte. Description: Activity at rat GABAA alpha-1V202Cbeta-2-gamma-2 mutant receptor expressed in xenopus oocytes assessed as change in GABA-induced current amplitude at 1 uM after 1 min exposure to GABA by two electrode voltage clamp method. The experiment is classed as cell-based.
The test system of experiment [17] is Oocyte. Description: Activity at rat GABAA alpha-1V211Cbeta-2-gamma-2 mutant receptor expressed in xenopus oocytes assessed as change in GABA-induced current amplitude at 1 uM after 1 min exposure to GABA by two electrode voltage clamp method. It is filed as cell-based.
Experiment [18] concerns HEK293. The experiment in a line: Displacement of [3H]Ro15-1788 from rat GABAA alpha-1H101Cbeta-2-gamma-2 mutant receptor expressed in HEK293 cells assessed as residual binding after pretreatment of L-cysteine at 30 nM after 1 hr by liquid scintillation counting. The experiment is classed as cell-based. For orientation: Loss of bound radioactivity is the signal in a displacement assay; it reports binding, not function.

The test system of experiment [19] is HEK293. Description: Displacement of [3H]Ro15-1788 from rat GABAA alpha-1H101Cbeta-2-gamma-2 mutant receptor expressed in HEK293 cells assessed as residual binding without pretreatment of L-cysteine at 30 nM after 1 hr by liquid scintillation counting. The experiment is classed as cell-based.
The subject of experiment [20] is HEK293. The experiment in a line: Displacement of [3H]Ro15-1788 from rat GABAA alpha-1H101Cbeta-2-gamma-2 mutant receptor expressed in HEK293 cells assessed as residual binding at 10 nM after 1 hr by liquid scintillation counting. It is filed as cell-based.
In experiment [21] the test system is HEK293. Description: Displacement of [3H]Ro15-1788 from rat GABAA alpha-1H101Cbeta-2-gamma-2 mutant receptor expressed in HEK293 cells assessed as residual binding at 10 nM after 1 hr by liquid scintillation counting in presence of Ro15-1788. It is filed as cell-based.
For experiment [22], the system named is HEK293. The experiment in a line: Displacement of [3H]Ro15-1788 from rat GABAA alpha-1H101Cbeta-2-gamma-2 mutant receptor expressed in HEK293 cells assessed as residual binding at 10 nM after 1 hr by liquid scintillation counting in presence of flunitrazepam. The experiment is classed as cell-based.
Experiment [23] can be described thus: Displacement of [3H]Ro15-1788 from rat GABAA alpha-1H101Cbeta-2-gamma-2 mutant receptor expressed in HEK293 cells after 1 hr assessed as residual binding by liquid scintillation counting. It is filed as cell-based.
Experiment [24] is described as follows: Displacement of [3H]Ro15-1788 from rat GABAA alpha-1-beta-2-gamma-2S receptor expressed in HEK293 cells by liquid scintillation counting. It is filed as cell-based.
The test system of experiment [25] is HEK293. The experiment in a line: Displacement of [3H]Ro15-1788 from rat GABAA alpha-1H101Cbeta-2-gamma-2 mutant receptor expressed in HEK293 cells assessed as residual binding at 100 nM after 1 hr by liquid scintillation counting. The experiment is classed as cell-based.
Experiment [26] deals with HEK293. The experiment in a line: Displacement of [3H]Ro15-1788 from rat GABAA alpha-1G157Cbeta-2-gamma-2 mutant receptor expressed in HEK293 cells assessed as residual binding at 100 nM after 1 hr by liquid scintillation counting. It is filed as cell-based.
Experiment [27] concerns HEK293. The experiment in a line: Displacement of [3H]Ro15-1788 from rat GABAA alpha-1V202Cbeta-2-gamma-2 mutant receptor expressed in HEK293 cells assessed as residual binding at 100 nM after 1 hr by liquid scintillation counting. The experiment is classed as cell-based.
Experiment [28] deals with HEK293. The experiment in a line: Displacement of [3H]Ro15-1788 from rat GABAA alpha-1V211Cbeta-2-gamma-2 mutant receptor expressed in HEK293 cells assessed as residual binding at 100 nM after 1 hr by liquid scintillation counting. The experiment is classed as cell-based.
For experiment [29], the target named is T1, Gamma-aminobutyric acid receptor subunit alpha-1 (Homo sapiens) (UniProt P14867).
T1 sequence (whole entry): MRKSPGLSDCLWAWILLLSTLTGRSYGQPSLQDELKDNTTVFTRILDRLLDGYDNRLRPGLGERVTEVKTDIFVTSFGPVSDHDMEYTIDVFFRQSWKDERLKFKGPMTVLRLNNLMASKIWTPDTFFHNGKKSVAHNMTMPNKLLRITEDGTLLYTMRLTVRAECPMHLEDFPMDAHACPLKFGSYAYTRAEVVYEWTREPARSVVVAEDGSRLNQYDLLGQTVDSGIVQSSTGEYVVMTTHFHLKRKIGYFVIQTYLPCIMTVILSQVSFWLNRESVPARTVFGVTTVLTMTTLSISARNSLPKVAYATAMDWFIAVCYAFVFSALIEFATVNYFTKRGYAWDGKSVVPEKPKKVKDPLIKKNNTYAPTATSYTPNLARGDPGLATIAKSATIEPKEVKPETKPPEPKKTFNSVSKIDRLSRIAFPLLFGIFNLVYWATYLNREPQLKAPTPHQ
As to conditions: Rattus norvegicus; Oocyte; 1 uM.
Description: Activity at rat wild type GABAA alpha-1-beta-2-gamma-2 receptor expressed in xenopus oocytes assessed as change in GABA-induced current amplitude at 1 uM after 1 min exposure to GABA by two electrode voltage clamp method

The target of experiment [30] is T1, Gamma-aminobutyric acid receptor subunit alpha-1 (Homo sapiens). The following applies: Rattus norvegicus; Oocyte; 1 uM. The source holds these as a separate data set.
Description: Activity at rat wild type GABAA alpha-1-beta-2-gamma-2 receptor expressed in xenopus oocytes assessed as change in GABA-induced current amplitude at 1 uM after 5 min exposure to GABA by two electrode voltage clamp method
Experiment [31] has the same target. As to conditions: Rattus norvegicus; Oocyte; 10 uM.
Description: Activity at rat wild type GABAA alpha-1-beta-2-gamma-2 receptor expressed in xenopus oocytes assessed as change in GABA-induced current amplitude at 10 uM after 5 min by two electrode voltage clamp method

The EC50 is the concentration that produces a half-maximal response. One may read the inhibition as the relative decrease from the control value, in per cent. Turning to `Cc1ccc(-c2nc3ccc(C)cn3c2CC(=O)N(C)C)cc1` [ZOLPIDEM], the EC50 in experiment [1] came out at 2.75 µM; in experiment [3], 0.341 µM; in experiment [6], 1.18 µM; in experiment [8], 2.63 µM. Also, the max activation in the experiment with Oocyte [2] was found to be 369%; with Oocyte [4], 127%; in the experiment with Oocyte [7], 162%; in the experiment with Oocyte [9], 427%. Also, the inhibition with Oocyte [5] is 96%.
With `CCOC(=O)c1ncn2c1CN(C)C(=O)c1cc(F)ccc1-2` [FLUMAZENIL], the max activation with Oocyte [2] was 1%; with Oocyte [4] it was 5%; in the experiment with Oocyte [7], 22%; with Oocyte [9] it was -2%. The inhibition with Oocyte [10] turned out to be 22%. Besides, in experiment [6], the EC50 worked out at 0.03 µM.
Usually Kd stands for the concentration at which binding is half-saturated. A word on the Ki: it is the equilibrium dissociation constant of an inhibitor or competing ligand from its target. Low values mean tighter binding, high ones weaker binding. `CCOC(=O)c1ncn2c1CN(C)C(=O)c1cc(N=C=S)ccc1-2`: the EC50 is 0.668 µM in experiment [1], greater than 2 µM in experiment [3], 0.017 µM in [6] and 0.034 µM in experiment [8]. Besides, the max activation in the experiment with Oocyte [2] is 16%; with Oocyte [4], greater than 140%; in the experiment with Oocyte [7] it was 90%; in the experiment on Oocyte [9], 30%. The result with Oocyte [11] was Active. Also, the Activity in the experiment with Oocyte [12] stood at 362 nM; in the experiment with HEK293 [18] it was 82%; in the experiment with HEK293 [19], 18%; with HEK293 [20] it was 29%; in the experiment on HEK293 [21], 73%; with HEK293 [22], 64%. Moreover, the Activity worked out at 85% in the experiment with HEK293 [25], 50% in the experiment with HEK293 [26], 50% with HEK293 [27] and 50% in the experiment with HEK293 [28]. In addition, the inhibition with Oocyte [13] was 53%; in the experiment with Oocyte [14], 47%; with Oocyte [15], 88%; with Oocyte [16] it was 71%; in the experiment with Oocyte [17], 5%; in experiment [29], 3%. Also, the inhibition came out at 4% in [30] and 8% in [31]. The Kd in [23] was 0.0009 µM. This compound also yielded a Ki in experiment [24] of 0.01 µM.
With `CCOC(=O)c1ncn2c1CN(C)C(=O)c1cc(N=[N+]=[N-])ccc1-2` [Ro-154513], the max activation in the experiment on Oocyte [2] is 9%; with Oocyte [4], -23%; in the experiment with Oocyte [7], 40%; in the experiment with Oocyte [9], 36%. The EC50 in experiment [3] was 0.044 µM; in [6] it was 0.017 µM; in experiment [8] it was 0.032 µM.
